As usually defined, the MIC is the lowest concentration found to suppress growth.

The structures appear in SMILES notation. In brackets after ≈: the same amount, converted by molar mass.

Results on two molecules are retold here after patent publication US12275734B1, “Pleuromutilin onium salt derivative containing a 3H-imidazo[4,5-c]pyridine side chain, and a preparation method and application thereof” (SHAANXI UNIVERSITY OF SCIENCE AND TECHNOLOGY, priority 2024, dated 2025).

Experiment [1] has as its system MRSA (ATCC 33591). As to the kind of experiment: Time-kill curve. Type of experiment: cell-based, S. aureus. To be noted: 1×MIC to 8×MIC, 0-24 hours. The protocol:
Based on the MIC test results, the best performing active compounds were selected for time-kill curve studies.
(2) Sampling: At 0, 2, 4, 6, 8, 12, and 24 hours, aspirate 100 μL of the mixture
(3) Serial dilution and coating: Use 10 mM PBS buffer to dilute 10 times continuously, and evenly coat the diluted liquid on the agar plate
(4) Incubation and counting: Incubate in a 37° C. incubator for 24 hours and count the colonies.
(5) Sterilization curve drawing: Draw the curve of colony count change over time at different compound concentrations, and record the results as shown in FIG. 1.

In experiment [2] the test system is E. coli (ATCC 25922). Nature of the experiment: Bacterial intracellular pH (cFDA-SE). Type of experiment: cell-based. To be noted: control 6.16±0.10. As for the experimental part: (§1) The definition of pHin is based on the ratio of the pH-sensitive wavelength (490 nm) to the pH-insensitive wavelength (440 nm).
(§2) First, prepare fluorescently labeled bacterial cells. MRSA and E. coli bacteria were removed from the culture in the logarithmic growth phase, and after high-speed centrifugation and washing with HEPES buffer, the bacteria were labeled with carboxyfluorescein succinimidyl ester (cFDA-SE), and the fluorescent dye was bound to the cells by incubation.
(§3) Next, PBS buffer was used to wash and remove the unbound fluorescent dye, and then the cells were suspended in the buffer and stored in a low-temperature environment. The second step was to determine the intracellular pH. The fluorescently labeled cell suspension was added to a test tube containing different concentrations of compound i and transferred to a black opaque 96-well plate for incubation. The fluorescence value was measured at specific excitation and emission wavelengths using a full-wavelength scanning multifunctional reader to calculate the intracellular pH. The last step is the calibration of the intracellular pH. The standard curve was determined using buffer solutions with different pH values to ensure accurate determination of the pH value inside the bacterial cells. […]

The subject of experiment [3] is Staphylococcus aureus (MRSA, ATCC 33591). Nature of the experiment: Mouse MRSA systemic infection model, survival rate. Type of experiment: in vivo. The note with it: MRSA-infected mice, 5, 10, 20 mg/kg single intraperitoneal injection 1 hour after infection, 7-day survival. As for the experimental part:
Establishment of a mouse model of MRSA systemic infection
(1) Solution preparation and bacterial activation: Reference Example 15.
(2) Pretreatment: All mice received cyclophosphamide treatment, with the first intraperitoneal injection of 150 mg/kg cyclophosphamide 4 days before infection and the second intraperitoneal injection of 100 mg/kg cyclophosphamide 1 day before infection.
(3) Control group treatment: Mice in the blank control group received intraperitoneal injection of 0.9% saline.
(4) Infection process: Mice were anesthetized with isoflurane and infected by intraperitoneal injection of Staphylococcus aureus (MRSA, ATCC 33591) at a concentration of 10^7 CFU/mL.
(1) Experimental groups: The doses of compound i and valnemulin were 5, 10, and 20 mg/kg, respectively (the solvent was dimethyl sulfoxide: Tween-80: sterile water=1:0.5:9.5);
A model control group (administered with a solvent after infection with bacteria) and a blank control group (administered with a solvent only without infection with bacteria) were set up, with 10 mice in each group, half of which were male and half were female.
(2) Time point: Intraperitoneal injection was performed in the experimental group mice at 1 hour after infection.
(3) Therapeutic dose: The mice in the experimental groups received intraperitoneal injection of 0.5 mL of compound i and valnemulin at different concentrations. […]

In experiment [4] the test system is MRSA (ATCC 33591). As to the kind of experiment: Bacterial intracellular pH (cFDA-SE). The class given is cell-based, S. aureus. To be noted: control 6.57±0.10. The protocol: as §1, §2, §3
Experiment [5] relates to C. pneumoniae CWL-029, VR-1310. Nature of the experiment: Anti-mycoplasma MIC. Type of experiment: cell-based. The note with it: Chlamydia pneumoniae, read-out: Antimycoplasma activity (MIC) CP-CWL-029^h. As for the experimental part:
The antimycoplasma activity was quantified using the […]. Retapamulin was used as a positive control to test the minimum inhibitory concentration of 3H-imidazo[4,5-C]pyridine pleuromutilin onium salt derivatives.
(1) Preparation of KM2 medium: Weigh 38.9 g of KM2 medium, add it to 800 mL of distilled water, boil to dissolve, sterilize under high pressure at 115° C. for 20 min, and set aside.
(2) Preparation of bacterial stock solution: Take 0.5 mL of Mhp-J^a, Mhp-LH^b, Mhr-BTS-7^c, MG-R^d, MS-WVU1853^e, MP-M129^f, CP-AR-39^g, CP-CWL-029^h, CP-TW-183^i, MH-PG-21^j, MG-G37^k cultured to the logarithmic phase and transfer it to 4.5 mL of KM2 liquid culture medium. When the culture medium turns yellow, divide each bacterium into 0.5 mL per tube and store it at −70° C. as bacterial stock solution.
(3) Determination of bacterial titer (color change unit, CCU): Take out the bacterial stock solution stored at −70° C., melt and balance to room temperature, add 0.18 mL KM2 medium to each well of the middle 4 rows of the 96-well plate (i.e. 4 parallels), take 0.02 mL and add it to the first column, dilute 10 times to 10^−11, and set up a negative control containing only KM2 medium (12th column). After sealing, put it in a 37° C. incubator and observe the results every day. The highest dilution at which the color of the medium changes is the CCU/mL of the strain.
Take an appropriate amount of seed bacterial solution and dilute it to 10^4 CCU/mL in turn according to its titer. Add drugs of each dilution in a 96-well plate in turn, and then add an equal amount of diluted bacterial solution. Set 200 μL of diluted mycoplasma bacterial solution as a positive control, 200 μL of KM2 liquid culture medium as a negative control, and set a solvent control group (10 μL of drug solvent+190 μL of mycoplasma bacterial solution). Each experiment is set up in 3 parallels. After all culture plates are sealed, they are cultured at 37° C., observed daily, and the final MIC value is recorded.

For `C=C[C@]1(C)C[C@@H](OC(=O)CSc2nc3cc[n+](Cc4ccc(C)cc4)cc3[nH]2)[C@]2(C)[C@H](C)CC[C@]3(CCC(=O)[C@H]32)[C@@H](C)[C@@H]1O` [Compound i, 5-(4-methylbenzyl)-2-((2-(((3aR,4R,5R,7S,8S,9R,9aS,12R)-8-hydroxy-4,7,9,12-tetramethyl-3-oxo-7-vinyldecahydro-4,9a-propancyclopenta[8]cyclo-5-yl)oxy)-2-oxoethyl)thio)-3H-imidazo[4,5-C]pyridine-5-ium], the “bactericidal efficiency (time-kill curve) compared with retapamulin” value in experiment [1] is given as “higher bactericidal efficiency”. For the same molecule, the “intracellular pH after treatment” value was found to be 4.79±0.10 in experiment [2] (1×MIC), 3.58±0.10 in experiment [2] (2×MIC), 4.66±0.12 in experiment [4] (1×MIC) and 2.96±0.09 in experiment [4] (2×MIC). Further, the “survival rate of mice” value in experiment [3] was “significantly higher than the survival rate of mice given warnemulin”.
Consider `C=C[C@]1(C)C[C@@H](OC(=O)CS[C@@H]2C[C@H]3CC[C@@H](C2)N3C)[C@]2(C)[C@H](C)CC[C@]3(CCC(=O)[C@H]32)[C@@H](C)[C@@H]1O` [Retapamulin, reference compound], for which the MIC in experiment [5] came out at 0.03 mg/L (≈ 0.0579 µM).
